The source of these data is paper PMC4619459, “Metabolism of β-valine via a CoA-dependent ammonia lyase pathway” (Applied Microbiology and Biotechnology, 2015).

Holding throughout (format): biochemical
Assay [1] concerns the target T1, BvaB1-His (Pseudomonas sp. SBV1, UniProt A0A0C4UTI5).
T1 sequence (A0A0C4UTI5 1-253): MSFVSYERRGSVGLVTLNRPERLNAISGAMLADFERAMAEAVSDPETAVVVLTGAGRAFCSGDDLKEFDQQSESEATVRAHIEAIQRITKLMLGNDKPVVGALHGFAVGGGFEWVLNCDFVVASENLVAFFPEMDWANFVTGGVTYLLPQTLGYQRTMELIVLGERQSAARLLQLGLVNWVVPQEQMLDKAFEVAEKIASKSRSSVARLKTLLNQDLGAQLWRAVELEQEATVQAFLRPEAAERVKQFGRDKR
Briefly: UPLC-MS (m/z […]) and HPLC. Particulars: substrate made in situ by BvaA-His, not purified; 50 mM HEPES, 150 mM NaCl, 5 mM MgCl2, pH 8.

Assay [2] deals with T2, BvaB2-His (Pseudomonas sp. SBV1, UniProt A0A0C4USU5).
T2 sequence (A0A0C4USU5 1-266): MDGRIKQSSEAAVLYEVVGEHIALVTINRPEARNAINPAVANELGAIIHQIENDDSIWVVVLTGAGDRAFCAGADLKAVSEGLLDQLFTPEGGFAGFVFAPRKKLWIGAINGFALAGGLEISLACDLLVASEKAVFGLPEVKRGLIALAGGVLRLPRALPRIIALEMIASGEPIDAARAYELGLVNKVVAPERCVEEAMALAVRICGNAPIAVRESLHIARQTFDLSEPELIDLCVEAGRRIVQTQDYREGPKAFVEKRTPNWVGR
Briefly: UPLC-MS (m/z […]) and HPLC. The following applies: substrate made in situ by BvaA-His, not purified; 50 mM HEPES, 150 mM NaCl, 5 mM MgCl2, pH 8.

Assay [3] deals with T3, BvaA-His (Pseudomonas sp. SBV1, UniProt A0A0C4UT64). Briefly: UPLC-MS of CoA adduct; HPLC of AMP formation. Particulars: 5 mM ATP, 2.5 mM CoA, 5 mM MgCl2, 50 mM HEPES, 150 mM NaCl, pH 8, 30 °C.
The target in assay [4] is T2, BvaB2-His. The experiment in a line: HPLC of substrate depletion; UPLC-MS. The following applies: substrate made in situ by BvaA-His, not purified; 50 mM HEPES, 150 mM NaCl, 5 mM MgCl2, pH 8.
Assay [5] addresses T1, BvaB1-His. The experiment in a line: HPLC of substrate depletion; UPLC-MS. Particulars: substrate made in situ by BvaA-His, not purified; 50 mM HEPES, 150 mM NaCl, 5 mM MgCl2, pH 8.
Assay [6] concerns the target T3, BvaA-His. Briefly: HPLC of AMP formation. The following applies: 2.5 mM β-valine, 2.5 mM CoA, 5 mM MgCl2, 50 mM HEPES, 150 mM NaCl, pH 8, 30 °C.

T3 sequence (A0A0C4UT64 entry or part of it): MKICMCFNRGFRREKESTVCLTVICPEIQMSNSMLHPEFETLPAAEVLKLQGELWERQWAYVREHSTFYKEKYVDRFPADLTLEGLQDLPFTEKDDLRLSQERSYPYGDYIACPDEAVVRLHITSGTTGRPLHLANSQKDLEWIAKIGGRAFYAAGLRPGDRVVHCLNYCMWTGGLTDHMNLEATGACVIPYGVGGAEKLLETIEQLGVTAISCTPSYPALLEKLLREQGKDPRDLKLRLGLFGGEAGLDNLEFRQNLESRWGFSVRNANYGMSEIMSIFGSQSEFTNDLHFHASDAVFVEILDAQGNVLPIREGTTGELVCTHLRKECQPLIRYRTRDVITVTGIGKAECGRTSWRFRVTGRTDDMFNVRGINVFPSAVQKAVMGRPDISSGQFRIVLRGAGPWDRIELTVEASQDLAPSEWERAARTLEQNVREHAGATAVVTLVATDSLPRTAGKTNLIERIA

Regarding `CC(C)=CC(=O)SCCNC(=O)CCNC(=O)[C@H](O)C(C)(C)COP(=O)(O)OP(=O)(O)OC[C@H]1O[C@@H](n2cnc3c(N)ncnc32)[C@H](O)[C@@H]1OP(=O)(O)O` [3-methyl-crotonyl-CoA], the “UPLC-MS (m/z 849) and HPLC” value on BvaB1-His [1] and on BvaB2-His [2] was “This parent ion was observed in a mixture containing either BvaB1-His or BvaB2-His” each time.

Regarding `CC(C)(N)CC(=O)O` [β-valine], the “UPLC-MS of CoA adduct; HPLC of AMP formation” value on BvaA-His [3] was “both the β-valinyl-CoA and the AMP levels increased in time”.

Consider `CC(C)(N)CC(=O)SCCNC(=O)CCNC(=O)[C@H](O)C(C)(C)COP(=O)(O)OP(=O)(O)OC[C@H]1O[C@@H](n2cnc3c(N)ncnc32)[C@H](O)[C@@H]1OP(=O)(O)O` [β-valinyl-CoA], for which the “HPLC of substrate depletion; UPLC-MS” value on BvaB2-His [4] and on BvaB1-His [5] was “both expected β-valinyl-CoA ammonia lyases are able to convert β-valinyl-CoA to 3-methyl-crotonyl-CoA” throughout.

Turning to `Nc1ncnc2c1ncn2[C@@H]1O[C@H](COP(=O)(O)OP(=O)(O)OP(=O)(O)O)[C@@H](O)[C@H]1O` [ATP], the “HPLC of AMP formation” value at BvaA-His [6] is “able to convert β-valine to β-valinyl-CoA in an ATP- and CoA-dependent manner”.
